Source: patent publication US9796700B2 (Celgene CAR LLC, priority 2013, dated 2017)
Blank lines part the entries; values can stand above or below the compound they belong to.

How the values were obtained:
MEK1 activated ERK1 = MEK1 activated ERK1 (Homo sapiens (Human), UniProt P27361); test: Omnia continuous-read kinase assay for potency against MEK1 activated ERK1; assay type: biochemical; conditions: MEK1 activated ERK1, WT, ATP at KM
Description: Omnia Assay Protocol for Potency Assessment Against MEK1 Activated ERK1:
The protocol below describes continuous-read kinase assays to measure potency of compounds against activated ERK1 enzyme. The mechanics of the assay platform are best described by the vendor (Invitrogen, Carlsbad, Calif.) on their website at the following URL: invitrogen.com/site/us/en/home.html.
Briefly, a 1.25× stock of ERK1 enzyme (14-439-K) from Millipore (Billerica, Mass.), 5×ATP (AS001A) and ST17-Sox conjugated peptide substrate (KNZ1171C) were prepared in 1× kinase reaction buffer consisting of 20 mM Tris, pH 7.5, 5 mM MgCl2, 1 mM EGTA, 5 mM β-glycerophosphate, 5% glycerol (10× stock, KB002A) and 0.2 mM DTT. 10 μL of ATP/ST17-sox peptide substrate mix was combined with 0.5 μL volume of 100% DMSO and serially diluted compounds were prepared in 100% DMSO in a Corning (#3574) 384-well, white, non-binding surface microtiter plate (Corning, N.Y.). Kinase reactions were started with the addition of 40 μL of ERK1 solution and monitored every 71 seconds for 30-240 minutes at λex360/λem485 in a Synergy plate reader from BioTek (Winooski, Vt.). At the conclusion of each assay, progress curves from each well were examined for linear reaction kinetics and fit statistics (R^2, 95% confidence interval, absolute sum of squares). Initial velocity (0 minutes to ˜30+ minutes) from each reaction was determined from the slope of a plot of relative fluorescence units vs time (minutes or seconds) and then plotted against inhibitor concentration to estimate ^AppIC50 from log [Inhibitor] vs Response, Variable Slope model in GraphPad Prism from GraphPad Software (San Diego, Calif.).
[Reagent] used in optimized protocol:
[ERK1]=4 nM, [ATP]=50 μM, [ST17-Sox]=10 μM (ATP ^appKM 48 μM)
The results of this assay show the degree of inhibition of ERK activity, which is a direct measurement of inhibition of ERK activity. Results from this assay are reported in Table A under the column “ERK1 Omnia WT ATP KM IC50 (nM).”

Erk1 = Erk1 (Homo sapiens (Human), UniProt P27361); test: Protein Mass Modification Assay (intact protein MALDI); assay type: binding
Outline: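 Human Erk1 was incubated 60 min at room temperature with a 10-fold molar excess of compound, then analysed as intact protein by MALDI with sinapinic acid matrix. The centroid mass shift versus untreated protein was divided by compound molecular weight to give percent modified protein.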

Erk1, sequence (P27361 whole entry, looked up): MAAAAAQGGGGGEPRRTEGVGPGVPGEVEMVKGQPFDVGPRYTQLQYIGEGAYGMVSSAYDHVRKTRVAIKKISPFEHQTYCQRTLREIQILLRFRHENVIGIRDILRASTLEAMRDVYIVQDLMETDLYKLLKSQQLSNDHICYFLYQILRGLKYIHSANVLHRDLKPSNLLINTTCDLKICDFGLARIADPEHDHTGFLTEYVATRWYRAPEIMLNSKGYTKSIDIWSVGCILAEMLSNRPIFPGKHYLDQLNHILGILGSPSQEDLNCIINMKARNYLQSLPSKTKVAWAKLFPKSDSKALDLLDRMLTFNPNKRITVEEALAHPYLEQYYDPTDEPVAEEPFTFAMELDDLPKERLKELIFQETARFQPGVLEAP
MEK1 activated ERK1, sequence (P27361 whole entry): as the sequence (P27361 whole entry, looked up) above

SMILES: C=CC(=O)Nc1cc(C)ccc1Nc1nc(Nc2cc(OC)ncc2C)ncc1C(F)(F)F [Compound I-90, N-(2-((2-((2-Methoxy-5-methylpyridin-4-yl)amino)-5-(trifluoromethyl)pyrimidin-4-yl)amino)-5-methylphenyl)acrylamide]
IC50 (MEK1 activated ERK1): < 100 nM
ERK1 Mass Mod (%) (Erk1): E (provided a mass modification of ≧70%)

SMILES: C=CC(=O)Nc1ccccc1Nc1ccnc(Nc2ccc(N3CCN(C(C)=O)CC3)cc2OC)n1 [Compound I-154, N-(2-((2-((4-(4-acetylpiperazin-1-yl)-2-methoxyphenyl)amino)pyrimidin-4-yl)amino)phenyl)acrylamide]
IC50 (MEK1 activated ERK1): > 1000 nM
ERK1 Mass Mod (%) (Erk1): G (proived a mass modification ≦30%)

SMILES: C=CC(=O)Nc1ccccc1Nc1nc(N[C@H]2CCCN(C(N)=O)C2)ncc1C(F)(F)F [Compound I-18, (S)-3-((4-((2-Acrylamidophenyl)amino)-5-(trifluoromethyl)pyrimidin-2-yl)amino)piperidine-1-carboxamide]
IC50 (MEK1 activated ERK1): < 100 nM
ERK1 Mass Mod (%) (Erk1): E (provided a mass modification of ≧70%)

SMILES: N#CNC(=O)c1ccccc1Nc1nc(N[C@H]2CCCN(C(=O)CO)C2)ncc1C(F)(F)F [Compound I-26, (S)—N-Cyano-2-((2-((1-(2-hydroxyacetyl)piperidin-3-yl)amino)-5-(trifluoromethyl)pyrimidin-4-yl)amino)benzamide]
IC50 (MEK1 activated ERK1): > 1000 nM
ERK1 Mass Mod (%) (Erk1): G (proived a mass modification ≦30%)

SMILES: C=CC(=O)N[C@@H]1CCCC[C@@H]1Nc1nc(Nc2cc(C(N)=O)ccc2C)ncc1Cl [Compound I-199, 3-((4-(((1S,2R)-2-acrylamidocyclohexyl)amino)-5-chloropyrimidin-2-yl)amino)-4-methylbenzamide]
IC50 (MEK1 activated ERK1): > 1000 nM
ERK1 Mass Mod (%) (Erk1): G (proived a mass modification ≦30%)

SMILES: C=CC(=O)Nc1ccccc1Nc1nc(Nc2cc(C(N)=O)ccc2CC)ncc1Cl [Compound I-193, 3-((4-((2-acrylamidophenyl)amino)-5-chloropyrimidin-2-yl)amino)-4-ethylbenzamide]
IC50 (MEK1 activated ERK1): < 100 nM
ERK1 Mass Mod (%) (Erk1): E (provided a mass modification of ≧70%)

SMILES: C=CC(=O)Nc1ccccc1Nc1nc(N[C@H]2CCCN(C=O)C2)ncc1C(F)(F)F [Compound I-9, (S)—N-(2-((2-((1-formylpiperidin-3-yl)amino)-5-(trifluoromethyl)pyrimidin-4-yl)amino)phenyl)acrylamide]
IC50 (MEK1 activated ERK1): < 100 nM
ERK1 Mass Mod (%) (Erk1): E (provided a mass modification of ≧70%)

SMILES: C=CC(=O)Nc1cc(C)ccc1Nc1nc(N[C@H]2CCCN(C(C)=O)C2)ncc1C(F)(F)F [Compound I-19, (S)—N-(2-((2-((1-Acetylpiperidin-3-yl)amino)-5-(trifluoromethyl)pyrimidin-4-yl)amino)-5-methylphenyl)acrylamide]
IC50 (MEK1 activated ERK1): < 100 nM
ERK1 Mass Mod (%) (Erk1): E (provided a mass modification of ≧70%)

SMILES: C=CC(=O)Nc1ccccc1Nc1nc(N[C@H]2CCCN(C(C)=O)C2)ncc1Cl [Compound I-115, (S)—N-(2-((2-((1-acetylpiperidin-3-yl)amino)-5-chloropyrimidin-4-yl)amino)phenyl) acrylamide]
ERK1 Mass Mod (%) (Erk1): E (provided a mass modification of ≧70%)

SMILES: CC(=O)N1CCC[C@H](Nc2ncc(C(F)(F)F)c(NC3C4C=CC(C4)C3C(=O)NC#N)n2)C1 (mixture of isomers) [Compound I-25, Rac-3-((2-(((S)-1-acetylpiperidin-3-yl)amino)-5-(trifluoromethyl)pyrimidin-4-yl)-cis-amino)-N-cyanobicyclo[2.2.1]hept-5-ene-2-carboxamide]
ERK1 Mass Mod (%) (Erk1): G (proived a mass modification ≦30%)

SMILES: C=CC(=O)N[C@@H]1CCCC[C@H]1Nc1nc(Nc2cc(C(=O)NOC)ccc2C)ncc1C(N)=O (racemic) [Compound I-256, Rac-trans-4-((2-acrylamidocyclohexyl)amino)-2-((5-(methoxycarbamoyl)-2-methylphenyl)amino)pyrimidine-5-carboxamide]
ERK1 Mass Mod (%) (Erk1): G (proived a mass modification ≦30%)

SMILES: C=CC(=O)Nc1ccccc1Nc1nc(Nc2cc(C(=O)O)ccc2C)ncc1Cl [Compound I-225, 3-((4-((2-acrylamidophenyl)amino)-5-chloropyrimidin-2-yl)amino)-4-methylbenzoic acid]
ERK1 Mass Mod (%) (Erk1): F (provided a mass modification of 31-69%)

Now from value to compound:

IC50 (MEK1 activated ERK1): < 100 nM
ERK1 Mass Mod (%) (Erk1): E (provided a mass modification of ≧70%)
SMILES: C=CC(=O)Nc1ccccc1Nc1nc(Nc2cc(OC)nc(N3CCCC3)c2)ncc1C(F)(F)F [Compound I-281, N-(2-((2-((2-Methoxy-6-(pyrrolidin-1-yl)pyridin-4-yl)amino)-5-(trifluoromethyl)pyrimidin-4-yl)amino)phenyl)acrylamide]

IC50 (MEK1 activated ERK1): < 100 nM
ERK1 Mass Mod (%) (Erk1): E (provided a mass modification of ≧70%)
SMILES: C=CC(=O)Nc1cc(C)ccc1Nc1nc(Nc2cc(OC)nc(N3CCN(C(C)=O)CC3)c2)ncc1Cl [Compound I-296, N-(2-((2-((2-(4-acetylpiperazin-1-yl)-6-methoxypyridin-4-yl)amino)-5-chloropyrimidin-4-yl)amino)-5-methylphenyl)acrylamide]

IC50 (MEK1 activated ERK1): > 1000 nM
ERK1 Mass Mod (%) (Erk1): E (provided a mass modification of ≧70%)
SMILES: C=CC(=O)Nc1cc(C)ccc1Nc1nc(Nc2cc(O)ncc2C)ncc1C(F)(F)F [Compound I-365, N-(2-((2-((2-hydroxy-5-methylpyridin-4-yl)amino)-5-(trifluoromethyl)pyrimidin-4-yl)amino)-5-methylphenyl)acrylamide]

IC50 (MEK1 activated ERK1): < 100 nM
ERK1 Mass Mod (%) (Erk1): G (proived a mass modification ≦30%)
SMILES: NC(=O)c1ccccc1Nc1nc(N[C@H]2CCCN(C(=O)CO)C2)ncc1C(F)(F)F [Compound I-307, (S)-2-((2-((1-(2-hydroxyacetyl)piperidin-3-yl)amino)-5-(trifluoromethyl)pyrimidin-4-yl)amino)benzamide]

IC50 (MEK1 activated ERK1): > 1000 nM
ERK1 Mass Mod (%) (Erk1): E (provided a mass modification of ≧70%)
SMILES: C=CC(=O)Nc1cc(C)ccc1Nc1nc(Nc2cc(OC)nc(N3CCC3)c2)ncc1C(F)(F)F [Compound I-329, N-(2-((2-((2-(azetidin-1-yl)-6-methoxypyridin-4-yl)amino)-5-(trifluoromethyl)pyrimidin-4-yl)amino)-5-methylphenyl)acrylamide]

IC50 (MEK1 activated ERK1): > 1000 nM
ERK1 Mass Mod (%) (Erk1): G (proived a mass modification ≦30%)
SMILES: C=CC(=O)Nc1ccccc1Oc1nc(Nc2ccc(N3CCN(C(C)=O)CC3)cc2OC)ncc1F [Compound I-260, N-(2-((2-((4-(4-acetylpiperazin-1-yl)-2-methoxyphenyl)amino)-5-fluoropyrimidin-4-yl)oxy)phenyl)acrylamide]

IC50 (MEK1 activated ERK1): > 1000 nM
ERK1 Mass Mod (%) (Erk1): G (proived a mass modification ≦30%)
SMILES: COc1cc(N2CCOCC2)ccc1Nc1ncc(N)c(Nc2ccccc2N)n1 [Compound I-312, N^4-(2-aminophenyl)-N^2-(2-methoxy-4-morpholinophenyl)pyrimidine-2,4,5-triamine]

IC50 (MEK1 activated ERK1): < 100 nM
SMILES: CCC(=O)Nc1ccccc1Nc1nc(N[C@H]2CCCN(C(=O)CO)C2)ncc1Cl [Compound I-311, (S)—N-(2-((5-chloro-2-((1-(2-hydroxyacetyl)piperidin-3-yl)amino)pyrimidin-4-yl)amino)phenyl)propionamide]

ERK1 Mass Mod (%) (Erk1): G (proived a mass modification ≦30%)
SMILES: C=CC(=O)Nc1ccccc1Nc1nc(Nc2ccc(N3CCOCC3)cc2OC)ncc1/C(C)=N/O [Compound I-275, (E)-N-(2-((5-(1-(hydroxyimino)ethyl)-2-((2-methoxy-4-morpholinophenyl)amino)pyrimidin-4-yl)amino)phenyl)acrylamide]

ERK1 Mass Mod (%) (Erk1): E (provided a mass modification of ≧70%)
SMILES: C=CC(=O)Nc1cc(C(F)(F)F)ccc1Nc1nc(Nc2cc(OC)ncc2C)ncc1C(F)(F)F [Compound I-323, N-(2-((2-((2-methoxy-5-methylpyridin-4-yl)amino)-5-(trifluoromethyl)pyrimidin-4-yl)amino)-5-(trifluoromethyl)phenyl)acrylamide]

ERK1 Mass Mod (%) (Erk1): E (provided a mass modification of ≧70%)
SMILES: C=CC(=O)Nc1ccccc1Nc1nc(Nc2cc(F)ccc2C)ncc1C(F)(F)F [Compound I-285, N-(2-((2-((5-Fluoro-2-methylphenyl)amino)-5-(trifluoromethyl)pyrimidin-4-yl)amino)phenyl)acrylamide]

ERK1 Mass Mod (%) (Erk1): G (proived a mass modification ≦30%)
SMILES: CC(=O)N1CCC[C@H](Nc2ncc(C(F)(F)F)c(N[C@H]3[C@@H](C(N)=O)[C@@H]4C=C[C@H]3C4)n2)C1 [Compound I-308, (1S,2S,3R,4R)-3-((2-(((S)-1-acetylpiperidin-3-yl)amino)-5-(trifluoromethyl)pyrimidin-4-yl)amino)bicyclo[2.2.1]hept-5-ene-2-carboxamide]
